Assay results as given in publication PMC12187371 (Neuro-Oncology, 2024).

Key:
HEI-193 cells [1] = assay: HEI-193 cell viability; format: cell-based, human; conditions: WST-8, 3 days
HEI-193 cells [2] = assay: Western blotting of differentiation and cell cycle markers in HEI-193 cells; format: cell-based, human; conditions: 7 days
normal human fibroblasts [3] = assay: Normal human fibroblast viability; format: cell-based; conditions: WST-8, 3 days
normal human fibroblasts [4] = assay: Apoptosis markers in normal human fibroblasts; format: cell-based; conditions: 1 day
[5] = tested on: NF2-associated vestibular schwannomas; conditions: progressive NF2-associated vestibular schwannomas; cited from earlier work

Row | Compound | proliferation of HEI-193 cells (HEI-193 cells [1]) | expression of SOX10, MBP, p21 and p27 (HEI-193 cells [2]) | expression of stem cell factor SOX2 (HEI-193 cells [2]) | toxicity in human normal fibroblasts (normal human fibroblasts [3]) | cytochrome c release from mitochondria (normal human fibroblasts [4]) | patients with improved hearing and reduced tumor volume [5]
1 | COc1cc(N2CCC(N3CCN(C)CC3)CC2)ccc1Nc1ncc(Cl)c(Nc2ccccc2P(C)(C)=O)n1 [Brigatinib] | dose-dependently reduced | decreased the expression of all these markers | decreased the expression of all these markers | showed toxicity | induced cytochrome c release | –
2 | Bevacizumab | – | – | – | – | – | about 40 % of patients
3 | Cn1cnc2c(F)c(Nc3ccc(Br)cc3Cl)c(C(=O)NOCCO)cc21 [Selumetinib] | did not exhibit any effect | – | – | – | – | –
